This is an account of results in US6548553B2, “Styryl sulfone anticancer agents” (Temple University-of the Commonwealth System of Higher …, priority 1997, dated 2003).

One may read the GI50 as the concentration that inhibits growth by half.

SMILES strings stand for the structures.

A short description of series [1]: Trypan blue exclusion viability assay, normal fibroblasts. The class given is cell-based. Particulars: mouse, NIH3T3 cells (normal fibroblasts). Set-up: viability at 48 h: dose or concentration left out as unconfirmed. Here is the method:
(§1) The effect of the styryl sulfones on the growth of normal and tumor cells of breast and prostate was examine utilizing four cell lines, NIH3T3, MCF-7, BT-20 and LnCap. NIH/3T3 cells represent normal fibroblasts while LnCap is an androgen-dependent prostate tumor cell line. MCF-7 is an estrogen-responsive breast tumor cell line, while BT-20 is an estrogen-unresponsive breast tumor cell line. MCF-7 and BT-20 were grown in Dulbecco's modified Eagle's medium (DMEM) containing 10% fetal bovine serum supplemented with penicillin and streptomycin. LnCaP were cultured in RPMI with 10% fetal bovine serum containing penicillin and streptomycin. NIH3T3 cells were grown in DMEM containing 10% calf serum supplemented with penicillin and streptomycin. All cell cultures were maintained at 37° C. in a humidified atmosphere of 5% CO2.
(§2) The compounds identified in Tables 2, 3 and 4 inhibited cell growth and induced cell death, to varying degrees. The tables list the percent viable LnCap and MCF-7 cells treated with 5.0 μM compound.
(§3) The percentage of living cells was determined by Trypan blue exclusion. The control cells were treated with DMSO to determine the effect of solvent on cells. […] Under these conditions, only 2-3% of NIH3T3 cells were non-viable at both the concentrations. […] After 48 hours incubation, 60-75% of the LnCaP, BT-20 and MCF-7 cells were dead at […] FRI-20 concentration, whereas more than 90% of NIH3T3 cells were viable (FIG. 2A).

For another series, the system named is U87. Briefly: GI50 growth inhibition, trypan blue cell count. In kind it is cell-based, human. Particulars: Homo sapiens, U-87 MG; glioblastoma; 96 hours after addition. On the procedure: (§4) The human carcinoma cell lines listed in Table 5 below were purchased from ATCC and grown in an appropriate growth medium containing 10% fetal bovine serum (FBS) and antibiotics. The cells were plated at a cell density of 1.0×10^5 cells per […] in 6-well dishes. The cells were treated with various concentrations of (E)-fluorostyryl-4-bromobenzylsulfone 24 hours after plating in a total volume of 1 ml of medium using dimethylsulfoxide (DMSO) as a solvent for the compound. Control cells were treated with DMSO alone. The total number of viable cells was determined 96 hours after the addition of the compound by counting the cells in each well using a hemacytometer after trypan blue staining (viable cells exclude the stain). The counts were done in duplicate and the average was graphed in FIG. 8 as a percentage of the non-treated control group.

The subject of the next series is H157. Briefly: GI50 growth inhibition, trypan blue cell count. The class given is cell-based, human. As to conditions: Homo sapiens, NCI-H157; lung, non-small cell; 96 hours after addition. Here is the method: as §4
The next series relates to DLD-1. Description: GI50 growth inhibition, trypan blue cell count. The class given is cell-based, human. As to conditions: Homo sapiens, DLD-1; cob-rectal; 96 hours after addition. On the procedure: as §4
In another series the test system is MIA-PaCa-2. Description: GI50 growth inhibition, trypan blue cell count. In kind it is cell-based, human. Particulars: Homo sapiens, MIA PaCa-2; pancreatic; 96 hours after addition. Here is the method:
as §4

Another series deals with LnCaP cells. Description: Cell cycle analysis by propidium iodide flow cytometry (FACS). In kind it is cell-based. As to conditions: 2.0 μM; harvested 6, 12, 24 and 48 hours. Here is the method: The androgen-dependent prostate tumor cell line LnCaP was grown as in Ex. 22, A, and treated with 2.0 μM FRI-20 dissolved in DMSO or with equivalent amounts ([…]) of DMSO alone. Cells were harvested 6, 12, 24, and 48 hours following treatment and stained with propidium iodide and subjected to flow cytometry (FACS) for analysis of DNA content.
For orientation: In flow cytometry, cells or beads pass a laser one at a time.

Series [2] concerns LnCaP, BT-20 and MCF-7 cells. Briefly: Trypan blue exclusion viability/proliferation assay (dose and time course). The class given is cell-based. Here is the method: as §1, §2
as §3, with “NIH3T3, MCF-7, BT-20 and LnCaP cells were treated with FRI-20 dissolved in DMSO to concentrations of 250 nM, 500 nM, 1 μM, 2.5 μM and 5 μM and examined for their proliferation and viability after 48 hours (FIG. 2A). The percentage” for “The percentage”
NIH/3T3, MCF-7, BT-20 and LnCap were treated with FRI-20 at 2.5 μM and the number of viable cells was determined at 12, 24, 48 and 72 hours by Trypan blue exclusion.

In another series the test system is SK-MEL-28. Briefly: GI50 growth inhibition, trypan blue cell count. As to conditions: Homo sapiens, melanoma, 96 hours after addition. The class given is cell-based. Here is the method: as §4
For a further series, the system named is JNK. Description: JNK immune complex kinase assay with GST-c-Jun substrate, treated cells. As to conditions: 48 hours treatment; NIH3T3, MCF-7 or LnCaP. The class given is cell-based. On the procedure: To further establish if the activity of stress activated protein kinases (SAPKs), of which JNK is a member, is compromised in the presence of FRI-20, cells (NIH3T3, MCF-7 or LnCaP) were treated with FRI-20 dissolved in DMSO or with DMSO alone. Forty-eight hours later, the cells were lysed with kinase buffer and the lysates used for estimation of the amount of JNK present in each lysate by western blot analysis using JNK polyclonal antibody. The biochemical activity of the JNK present in the FRI-20-treated and mock-treated cell lysates was also determined by immunoprecipitation of JNK followed by incubation with GST-c-Jun protein as a substrate for JNK in the presence of [γ-^32P]ATP.
Accordingly, JNK-1 in 100 mg of cell extracts was immunoprecipitated by incubating the lysate with […] of JNK-1 polyclonal antibody (sc from Santa Cruz Biotechnology) for one hour followed by an additional incubation with 20 μl of protein A-Sepharose (Pharmacia) for one hour. The beads were washed twice with JNK lysis buffer (as described above) followed by two washes with JNK reaction buffer. The beads were resuspended in 40 μl of JNK buffer containing […] [γ-^32P] […] The reaction was stopped, and the radioactivity in the phosphorylated GST-c-Jun protein was quantitated.

Series [3] has as its system LnCaP, BT-20 and MCF-7 cells. Briefly: Trypan blue exclusion viability/proliferation assay (dose and time course). In kind it is cell-based. Particulars: 2.5 mM (FIG. 1A) and 5.0 mM (FIG. 1B), 48 hours of treatment.

For the compound `O=S(=O)(/C=C/c1ccc(F)cc1)Cc1ccc(Cl)cc1` [Example 11, E-4-fluorostyryl 4-chlorobenzyl Sulfone], the cytotoxicity at 48 h in [1] (250 nM and 500 nM, 48 hours, read-out: non-viable NIH3T3 cells) fell in the range of 2 to 3%. This compound also returned a viability at 48 h, 5 µM in series [1] (5 μM) greater than 80%. Also, in series [1] (48 hours incubation, read-out: viable NIH3T3 cells), the viability at 48 h was greater than 80%. Besides, the GI50 in the series on U87 is 2 µM; in the series on H157 it was 1.5 µM; in the series with DLD-1 it was 1 µM; in the series on MIA-PaCa-2, 0.5 µM; in the series with SK-MEL-28 it was 2 µM. The “effect on cell cycle (DNA content)” value in the series with LnCaP cells was “accumulation of cells in the G2/M phase of the cell cycle”. For the same compound, the cell death result in series [2] (250 nM, 48 hours) is recorded as “about 10%”; in series [2] (500 nM, 48 hours) it was 25-30%; in series [2] (5 μM, 48 hours), roughly 90%. Besides, the inhibition at 0.25 µM in [2] (250 nM, 48 hours, read-out: inhibition in cell division compared to untreated cells) lay in the range of 15 to 20%. The inhibition at 0.5 µM in series [2] (500 nM, 48 hours, read-out: inhibition in cell proliferation) fell in the range of 30 to 50%. The “cell growth inhibition with loss of cell viability” value in [2] (1 μM, 48 hours) is recorded as “greatly inhibited”. The dead cells in series [2] (2.5 µM, 48 hours incubation) is given as 60-75%; in series [2] (2.5 μM, 72 hours of treatment) it was “more than 95%”. The “enhancement of JNK phosphorylation of GST-c-Jun compared to mock-treated cells” value in the series on JNK was 60-80%. Also, the “inhibition of growth and induction of death of LnCaP, BT-20 and MCF-7 cells” value in [3] was “substantially inhibit the growth and induce the death”.
